In ChEMBL document CHEMBL6177985, “Discovery of Novel Cyclic Peptides as SMAD2-SMAD4 Interaction Inhibitors for the Treatment of Hepatic Fibrosis” (J Med Chem, 2025):
Active and inactive are the calls of the source. The calls are words filed in the database; no cut-off is given here.

Legend:
LX-2 [1] = assay: Antifibrotic activity against TGF-beta1 stimulated human LX-2 cells assessed as reduction in COL1A1 expression at 100 uM incubated for 24 hrs by Western blotting analysis; type: functional, cell-based
LX-2 [2] = assay: Antifibrotic activity against TGF-beta1 stimulated human LX-2 cells assessed as reduction in alpha-SMA expression at 100 uM incubated for 24 hrs by Western blotting analysis; type: functional, cell-based
Homo sapiens = organism: Homo sapiens; assay: Inhibition of TGF-beta induced his tagged human SMAD2/human SMAD4 interaction at 100 uM incubated for 1 hr followed by anti-His-HRP addition and measured after 1 hr by blocking assay relative to control; conditions: time 2.0 hrs

| Compound | inhibition (Homo sapiens) [%] | Activity (LX-2 [1]) | Activity (LX-2 [2]) |
| --- | --- | --- | --- |
| H-TRPASYWETS-OH | 20.7 | inactive | inactive |
| H-TAPASFWETS-OH | 8.6 | inactive | inactive |
| H-TRPAWFWETS-OH | 21.3 | inactive | inactive |
| H-TRPAAFWETS-OH | 46.2 | Active | Active |
| H-TRPARFWETS-OH | 17.4 | inactive | inactive |
| Ac-TRPASFWETS-OH | 51.9 | inactive | inactive |
| H-TRPASQWETS-OH | 32.4 | inactive | inactive |
| C[C@@H]1NC(=O)[C@@H]2CCCN2C(=O)[C@H](CCCNC(=N)N)NC(=O)[C@H]([C@@H](C)O)NC(=O)[C@H](CO)NC(=O)[C@H]([C@@H](C)O)NC(=O)[C@H](CCC(=O)O)NC(=O)[C@H](Cc2c[nH]c3ccccc23)NC(=O)[C@H](Cc2ccccc2)NC(=O)[C@H](CO)NC1=O | 42.7 | Active; Compound Showed Marginal Reduction Compared To M10 | Active; Compound Showed Marginal Reduction Compared To M10 |
| H-TRPASWWETS-OH | 43.8 | inactive | inactive |
| H-TRPAEFWETS-OH | 24.2 | inactive | inactive |
| H-TRPAKFWETS-OH | 32.5 | inactive | inactive |

More lines, main results first:

| inhibition (Homo sapiens) [%] | Compound | Activity (LX-2 [1]) | Activity (LX-2 [2]) |
| --- | --- | --- | --- |
| 31.9 | H-TRPAQFWETS-OH | inactive | inactive |
| 42.6 | H-TRPANFWETS-OH | inactive | inactive |
| 23.6 | H-TRPASDWETS-OH | inactive | inactive |
| 34.7 | H-TRPAFFWETS-OH | inactive | inactive |
| 6.1 | H-TRPADFWETS-OH | inactive | inactive |
| 49.8 | H-TRPASFWETS-NH2 | inactive | inactive |
| 12.5 | H-ARPASFWETS-OH | inactive | inactive |
| 52.7 | H-TRPASAWETS-OH | Active | Active |
| 14.5 | H-TRPASFWETA-OH | inactive | inactive |
| 11.2 | H-TRPASFWATS-OH | inactive | inactive |
| 10.9 | H-TRPASEWETS-OH | inactive | inactive |
| 6.5 | H-TRPASFAETS-OH | inactive | inactive |
| 27.9 | C[C@@H]1NC(=O)[C@@H]2CCCN2C(=O)[C@H](CCCNC(=N)N)NC(=O)[C@H]([C@@H](C)O)NC(=O)[C@H](CO)NC(=O)[C@H]([C@@H](C)O)NC(=O)[C@H](CCC(=O)O)NC(=O)[C@H](Cc2c[nH]c3ccccc23)NC(=O)[C@H](Cc2ccccc2)NC(=O)[C@@H](CO)NC1=O | Active | Active |
| 27.1 | H-TRPASRWETS-OH | inactive | inactive |
| 60.5 | C[C@H](NC(=O)[C@@H]1CCCN1C(=O)[C@H](CCCNC(=N)N)NC(=O)[C@@H](N)[C@@H](C)O)C(=O)N[C@H](CO)C(=O)N[C@@H](Cc1ccccc1)C(=O)N[C@@H](Cc1c[nH]c2ccccc12)C(=O)N[C@@H](CCC(=O)O)C(=O)N[C@H](C(=O)N[C@@H](CO)C(=O)O)[C@@H](C)O | Active | Active |
| 31.3 | H-TRPASNWETS-OH | inactive | inactive |
